We go through 22 compounds from PubChem BioAssay AID330 (DTP/NCI, 2004).

The test system of this experiment is P388 leukemia ip, CD2F1 mice, survival T/C. Description: NCI In Vivo Anticancer Drug Screen. Data for tumor model P388 Leukemia (intraperitoneal) in CD2F1 (CDF1) mice. As to conditions: endpoint: median survival time, higher = longer survival. An outline of the steps:
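Mice carrying the transplanted tumor received test compound or vehicle. Survival was recorded in each group, and the value is the treated-group measurement divided by that of the vehicle-treated control group.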

Where [1] appears, read: dose: 50.0 mg/kg/injection, schedule: Q01DX005 (ip), vehicle: Klucel (hydroxypropylcellulose) (HPC).
The mark [2] stands for this setting: dose: 50.0 mg/kg/injection, schedule: Q01DX009 (ip), vehicle: Klucel (hydroxypropylcellulose) (HPC).
Where [3] appears, read: dose: 100.0 mg/kg/injection, schedule: Q01DX009 (ip), vehicle: Klucel (hydroxypropylcellulose) (HPC).
Where [4] appears, read: dose: 50.0 mg/kg/injection, schedule: Q01DX009 (ip), vehicle: saline with Tween-80.
Where [5] appears, read: dose: 100.0 mg/kg/injection, schedule: Q01DX009 (ip), vehicle: saline with Tween-80.
Where [6] appears, read: dose: 200.0 mg/kg/injection, schedule: Q01DX009 (ip), vehicle: Klucel (hydroxypropylcellulose) (HPC).

“And” between values parts separate entries of the source, which are not always exact repeats. Equal values may be shown once. Inconclusive results and toxic doses are left out.

As to `O=c1c2c([nH]c3ccc4[nH]c5c(c(=O)c4c13)CCCC5)CCCC2`, the T/C was 94 % of control (dose: 100.0 mg/kg/injection, schedule: Q04DX003 (ip), vehicle: saline with Tween-80); 91 % of control (dose: 200.0 mg/kg/injection, schedule: Q04DX003 (ip), vehicle: saline with Tween-80); 87 % of control (dose: 400.0 mg/kg/injection, schedule: Q04DX003 (ip), vehicle: saline with Tween-80).
Turning to `CC(C)n1c(Cl)c(C(=O)O)c2ccccc21`, the T/C (dose: 100.0 mg/kg/injection, schedule: Q04DX002 (ip), vehicle: saline with Tween-80) was 100 % of control; the T/C (dose: 200.0 mg/kg/injection, schedule: Q04DX002 (ip), vehicle: saline with Tween-80) was 98 % of control; the T/C (dose: 400.0 mg/kg/injection, schedule: Q04DX002 (ip), vehicle: saline with Tween-80) was 100 % of control.
With `OC(c1ccccc1)C(C(c1ccccc1)N1CCCc2ccccc21)N1CCOCC1` (stereo unspecified), the T/C is, setting by setting: under setting [1], 99 % of control; (dose: 100.0 mg/kg/injection, schedule: Q01DX005 (ip), vehicle: Klucel (hydroxypropylcellulose) (HPC)) 93 % of control; (dose: 200.0 mg/kg/injection, schedule: Q01DX005 (ip), vehicle: Klucel (hydroxypropylcellulose) (HPC)) 90 % of control.
Take `C=CCC(C(=O)OC)c1cc(OC)c(OC)c(OC)c1` (stereo unspecified): the T/C by setting is: (dose: 1.25 mg/kg/injection, schedule: Q01DX009 (ip), vehicle: saline) 97 % of control; (dose: 2.5 mg/kg/injection, schedule: Q01DX009 (ip), vehicle: saline) 100 % of control; (dose: 5.0 mg/kg/injection, schedule: Q01DX009 (ip), vehicle: saline) 115 % of control.
For the compound `CC(=O)OC(C(=O)N1CC1)C(OC(C)=O)C(OC(C)=O)C(OC(C)=O)C(=O)N1CC1` (stereo unspecified), the T/C (dose: 25.0 mg/kg/injection, schedule: Q01DX009 (ip), vehicle: Klucel (hydroxypropylcellulose) (HPC)) was 217 % of control; the T/C under setting [2] is 237 % of control and 255 % of control; the T/C under setting [3] is 88 % of control.
As for `Cn1nncc1NS(=O)(=O)c1ccc([N+](=O)[O-])cc1`, the T/C was 107 % of control (dose: 100.0 mg/kg/injection, schedule: Q01DX001 (ip), vehicle: saline with Tween-80); 115 % of control (dose: 200.0 mg/kg/injection, schedule: Q01DX001 (ip), vehicle: saline with Tween-80); 98 % of control (dose: 400.0 mg/kg/injection, schedule: Q01DX001 (ip), vehicle: saline with Tween-80).
For the compound `CN(C#N)CCc1ccccc1`, the T/C runs as follows: under setting [4], 100 % of control; under setting [5], 96 % of control.
For `C/C(=C\C(=O)Nc1ncn[nH]1)Nc1ncn[nH]1`, the T/C is 107 % of control under setting [2]; 100 % of control under setting [3]; 100 % of control under setting [6]; 99 % of control (dose: 400.0 mg/kg/injection, schedule: Q01DX009 (ip), vehicle: Klucel (hydroxypropylcellulose) (HPC)).
As to `CC1=CC(=C2C=C(C)C(=O)C(C)=C2)C=C(C)C1=O`, the T/C is 97 % of control and 98 % of control (dose: 100.0 mg/kg/injection, schedule: Q01DX009 (ip), vehicle: saline); 91 % of control and 95 % of control (dose: 200.0 mg/kg/injection, schedule: Q01DX009 (ip), vehicle: saline); 93 % of control and 94 % of control (dose: 400.0 mg/kg/injection, schedule: Q01DX009 (ip), vehicle: saline).
Consider `CN(C)c1nc2ccccn2c1C(=O)c1ccccc1`, for which the T/C runs as follows: (dose: 100.0 mg/kg/injection, schedule: Q04DX003 (ip), vehicle: Klucel (hydroxypropylcellulose) (HPC)) 103 % of control; (dose: 200.0 mg/kg/injection, schedule: Q04DX003 (ip), vehicle: Klucel (hydroxypropylcellulose) (HPC)) 100 % of control; (dose: 400.0 mg/kg/injection, schedule: Q04DX003 (ip), vehicle: Klucel (hydroxypropylcellulose) (HPC)) 103 % of control.
As to `CN=C1CN=C(OP(=O)(N2CCOCC2)N2CCOCC2)c2cc(Cl)ccc2N1`, the T/C under setting [2] was 98 % of control, the T/C under setting [3] was 101 % of control and the T/C under setting [6] is 100 % of control.
Consider `CCOCc1ccc(C(=O)NCCCc2c(-c3ccccc3)nc(N)[nH]c2=O)cc1`, for which the T/C is 100 % of control and 103 % of control and 94 % of control (dose: 3.75 mg/kg/injection, schedule: Q01DX005 (ip), vehicle: Klucel (hydroxypropylcellulose) (HPC)); 93 % of control and 97 % of control (dose: 7.5 mg/kg/injection, schedule: Q01DX005 (ip), vehicle: Klucel (hydroxypropylcellulose) (HPC)); 89 % of control and 92 % of control and 97 % of control (dose: 15.0 mg/kg/injection, schedule: Q01DX005 (ip), vehicle: Klucel (hydroxypropylcellulose) (HPC)); 86 % of control (dose: 240.0 mg/kg/injection, schedule: Q01DX005 (ip), vehicle: Klucel (hydroxypropylcellulose) (HPC)).
With `O=NN(CCCl)C(=O)Oc1cc(Cl)c(Cl)cc1Cl`, the T/C is 116 % of control (dose: 25.0 mg/kg/injection, schedule: Q01DX001 (ip), vehicle: Klucel (hydroxypropylcellulose) (HPC)); 86 % of control under setting [1]; 154 % of control and 250 % of control (dose: 75.0 mg/kg/injection, schedule: Q01DX001 (ip), vehicle: Klucel (hydroxypropylcellulose) (HPC)); 258 % of control (dose: 100.0 mg/kg/injection, schedule: Q01DX001 (ip), vehicle: Klucel (hydroxypropylcellulose) (HPC)).
For `O=C1CSC(=S)N1/N=C/c1ccccc1`, the T/C runs as follows: (dose: 25.0 mg/kg/injection, schedule: Q04DX002 (ip), vehicle: saline) 100 % of control; (dose: 50.0 mg/kg/injection, schedule: Q04DX002 (ip), vehicle: saline) 105 % of control; (dose: 100.0 mg/kg/injection, schedule: Q04DX002 (ip), vehicle: saline) 98 % of control.
With `CC1=NNC(=S)NCCCN2CCN(CCCNC(=S)NN=C(C)C=NNC(=S)NCCCN3CCN(CCCNC(=S)NN=C1)CC3)CC2`, the T/C was 106 % of control (dose: 50.0 mg/kg/injection, schedule: Q01DX005 (ip), vehicle: suspension in saline); 113 % of control (dose: 100.0 mg/kg/injection, schedule: Q01DX005 (ip), vehicle: suspension in saline); 106 % of control (dose: 200.0 mg/kg/injection, schedule: Q01DX005 (ip), vehicle: suspension in saline).
With `Clc1cccc(Cl)c1C(Nc1nc2ccccc2s1)Nc1nc2ccccc2s1`, the T/C (dose: 50.0 mg/kg/injection, schedule: Q01DX005 (ip), vehicle: Klucel + Tween-80) was 110 % of control; the T/C (dose: 100.0 mg/kg/injection, schedule: Q01DX005 (ip), vehicle: Klucel + Tween-80) was 106 % of control; the T/C (dose: 200.0 mg/kg/injection, schedule: Q01DX005 (ip), vehicle: Klucel + Tween-80) was 109 % of control.
Regarding `CC(C)N=C(Cc1ccccc1)NC(C)(C)C`, the T/C runs as follows: (dose: 12.5 mg/kg/injection, schedule: Q01DX009 (ip), vehicle: saline) 111 % of control; (dose: 25.0 mg/kg/injection, schedule: Q01DX009 (ip), vehicle: saline) 101 % of control; (dose: 50.0 mg/kg/injection, schedule: Q01DX009 (ip), vehicle: saline) 98 % of control.
On to `O=C1CCCC1C(=S)S` (stereo unspecified), for which the T/C runs as follows: (dose: 100.0 mg/kg/injection, schedule: Q04DX003 (ip), vehicle: saline) 102 % of control; (dose: 200.0 mg/kg/injection, schedule: Q04DX003 (ip), vehicle: saline) 102 % of control.
On to `N=[N+]=NC1C(O)C(CO)OC1n1cnc2c(N)ncnc21` (stereo unspecified), for which the T/C was 118 % of control (dose: 5.0 mg/kg/injection, schedule: Q03HX016 (ip), vehicle: Klucel (hydroxypropylcellulose) (HPC)); 110 % of control (dose: 10.0 mg/kg/injection, schedule: Q03HX016 (ip), vehicle: Klucel (hydroxypropylcellulose) (HPC)); 153 % of control (dose: 80.0 mg/kg/injection, schedule: Q03HX016 (ip), vehicle: Klucel (hydroxypropylcellulose) (HPC)); 64 % of control (dose: 160.0 mg/kg/injection, schedule: Q03HX016 (ip), vehicle: Klucel (hydroxypropylcellulose) (HPC)).
`N#CN=[N+]([O-])c1cccc([N+](=O)[O-])c1`: the T/C (dose: 6.25 mg/kg/injection, schedule: Q04DX003 (ip), vehicle: Klucel (hydroxypropylcellulose) (HPC)) was 106 % of control and the T/C (dose: 12.5 mg/kg/injection, schedule: Q04DX003 (ip), vehicle: Klucel (hydroxypropylcellulose) (HPC)) was 89 % of control.
For the compound `C[CH2][Sn]([CH2]C)([O]S(=O)(=O)CC12CCC(CC1=O)C2(C)C)[O]S(=O)(=O)CC12CCC(CC1=O)C2(C)C`, the T/C runs as follows: (dose: 1.56 mg/kg/injection, schedule: Q01DX009 (ip), vehicle: saline) 102 % of control; (dose: 3.12 mg/kg/injection, schedule: Q01DX009 (ip), vehicle: saline) 119 % of control.
Consider `CCCCCCC(=O)/C=C/c1ccc(OC(=O)c2ccc(C)cc2)cc1`, for which the T/C was 95 % of control under setting [4]; 93 % of control under setting [5]; 93 % of control (dose: 200.0 mg/kg/injection, schedule: Q01DX009 (ip), vehicle: saline with Tween-80).
